The text below walks through data of US20210186903A1, “TREATMENT FOR DEMYELINATING DISEASE” (CAMBRIDGE ENTERPRISE LIMITED, priority 2018, published 2021).

Assay [1] has as its system young adult OPCs (2-3 months old). The settings on record: T3 40 ng/ml, 9cRA 50 nM, miconazole 1 μM, benztropine 1.5 μM, O4, CNPase, MBP markers. Here is the method: Adult rats (2-27 months) were decapitated after lethal injection of phenobarbital into the tail vein. The brains were removed quickly and placed into ice-cold isolation medium (Tab. S3, alternatively Hibernate A (Brainbits). The telencephalon and cerebellum were dissected in isolation medium; meninges, and the olfactory bulb were mechanically removed and the brain tissue was mechanically minced into 1 mm3 pieces. The tissue pieces were spun down at 100 g for 1 min at RT and the tissue was washed in HBSS− (no Mg2+ and Ca2+, Gibco). Each half of the brain was mixed with 5 ml of dissociation solution (34 U/ml papain (Worthington), 20 μg/ml DNAse Type IV (Gibco) in isolation medium). The brain tissue was dissociated on a shaker (50 rpm) 494 for 40 min at 35° C. The digestion was stopped by addition of ice cold HBSS−. The tissue was centrifuged (200 g, 3 min, RT), the supernatant completely aspirated and the tissue resuspended in isolation medium supplemented with 2% B27 and 2 mM sodium-pyruvate (trituration solution). The tissue was allowed to sit in this solution for 5 min. To obtain a single cell suspension the tissue suspension was triturated 10 times using first a 5 ml serological pipette and subsequently three fire polished glass pipettes (opening diameter >0.5 mm). […]

In assay [2] the test system is aged OPCs. Put plainly: Differentiation assay of cultured aged OPCs. In kind it is cell-based, rat. The settings on record: for differentiation of aged OPCs: aged OPCs (20-24 months), T3 40 ng/ml, 9cRA 50 nM, miconazole 1 μM, benztropine 1.5 μM. As for the experimental part:
Adult rats (2-27 months) were decapitated after lethal injection of phenobarbital into the tail vein. The brains were removed quickly and placed into ice-cold isolation medium (Tab. S3, alternatively Hibernate A (Brainbits). The telencephalon and cerebellum were dissected in isolation medium; meninges, and the olfactory bulb were mechanically removed and the brain tissue was mechanically minced into 1 mm3 pieces. The tissue pieces were spun down at 100 g for 1 min at RT and the tissue was washed in HBSS− (no Mg2+ and Ca2+, Gibco). Each half of the brain was mixed with 5 ml of dissociation solution (34 U/ml papain (Worthington), 20 μg/ml DNAse Type IV (Gibco) in isolation medium). The brain tissue was dissociated on a shaker (50 rpm) 494 for 40 min at 35° C. The digestion was stopped by addition of ice cold HBSS−. The tissue was centrifuged (200 g, 3 min, RT), the supernatant completely aspirated and the tissue resuspended in isolation medium supplemented with 2% B27 and 2 mM sodium-pyruvate (trituration solution). The tissue was allowed to sit in this solution for 5 min. To obtain a single cell suspension the tissue suspension was triturated 10 times using first a 5 ml serological pipette and subsequently three fire polished glass pipettes (opening diameter >0.5 mm). After each trituration step the tissue suspension was allowed to sediment (approximately 1-2 min) and the supernatant (approximately 2 ml), containing the cells, was transferred into a fresh tube. After each round of trituration 2 ml of fresh trituration solution were added. To remove accidentally transferred undigested tissue bits, the collected supernatant was filtered through 70 μm cell strainers into tubes that contained 90% isotonic Percoll (GE Healthcare, 17-0891-01, in 10×PBS pH7.2 (Lifetech). The final volume was topped up with phenol-red free DMEM/F12 with HEPES (Gibco) and mixed to yield a homogenous suspension with a final Percoll concentration of 22.5%. The single cell suspension was separated from remaining debris particles by gradient density centrifugation (800 g, 20 min, RT, without break). The myelin debris and all layers without cells were discarded and the brain cell containing phase (last 2 ml) and cell pellet were resuspended in HBSS+ and combined in a fresh 15 ml tubes and centrifuged (300 g, 5 min, RT). The cell pellet was resuspended in red blood cell lysis buffer (Sigma, R7757) and incubated for 1 min at RT to remove red blood cells. 10 ml of HBSS+ were added to this cell suspension and spun down (300 g, 5 min, RT). The cell pellets were resuspended in 0.5 ml modified Milteny washing buffer (MWB, 2 mM EDTA, 2 mM Na-Pyruvate, 0.5% BSA in PBS, pH 7.3) supplemented with 10 ng/ml human recombinant insulin (Gibco). […]

The test system of assay [3] is aged OPCs. Description: qRT-PCR for OPC genes and Cdkn2a in cultured aged OPCs. In kind it is cell-based, rat. The following applies: aged OPCs (≥18 months). As for the experimental part:
After isolation, OPCs were left to recover in OPC medium (60 μg/ml N-Acetyl cysteine (Sigma), 10 μg/ml human recombinant insulin (Gibco), 1 mM sodium pyruvate (Gibco), 50 μg/ml apo-transferrin (Sigma), 16.1 μg/ml putrescine (Sigma), 40 ng/ml sodium selenite (Sigma), 60 ng/ml progesterone (Sigma), 330 μg/ml bovine serum albumin (Sigma)) supplemented with b-FGF and PDGF (30 ng/ml each, Peprotech).
RNA was isolated from freshly purified OPCs or from cultured OPCs according to the Directzol RNA MicroPrep Kit (Zymo Research; R2061). All RNA samples were stored at −80° C. prior to further processing. cDNA was generated using the QuantiTect Reverse Transcription Kit's according to the instructions of the manufacturer (Qiagen; 205310). For RT-qPCR, primers (see Extended Data Tab. 5) were used at a concentration of […]. The efficiency of each primer was greater than […] as determined for each primer pair by serial dilutions of OPC cDNA. cDNA, primers, and the Syber Green Master Mix (Qiagen; 04141) were mixed as instructed by the manufacturer, and RT-qPCR and melting curve analysis were performed on Life Technologies' Quantstudio 6 Flex Real-Time PCR System. Fold changes in gene expression were calculated using the delta delta Ct method in Microsoft Excel. Statistical significance was determined using two-tailed unpaired t-tests assuming equal variances.
Background: In qPCR the cycle at which signal appears reflects the starting amount.

The test system of the next assay is aged female SD rats. Put plainly: Remyelination after ethidium bromide lesion of caudal cerebellar peduncle in aged rats. The following applies: for degree of remyelination versus control animals: aged rats fed ad libitum, metformin 300 mg/kg bodyweight in drinking water from 15 months, lesion at 18 months, assessed 50 days later, rank. In kind it is in vivo, rat.

Assay [4] deals with aged OPCs. Put plainly: Comet assay (DNA damage) of aged OPCs. In kind it is cell-based, rat. As for the experimental part: For comet assays of freshly isolated OPCs approximately 5000 OPCs were resuspended in 100 μl PBS and mixed with 300 μl 1% low melting point agarose (37° C.). Alternatively, when OPCs were cultured prior to the assay, the cells were detached using TrypLE 1× Select (Gibco) for 8 min at 37° C. The comet assay was then performed as described in reference 33. Briefly, OPCs were centrifuged at 300 g for 5 min. at room temperature and the cell pellet was resuspended with 100 μl PBS and then mixed with 300 μl molten low-melting point agarose pre-incubated at 37° C. The cell-agarose suspension was then applied gently onto polysine slides that were pre-treated with 1% agarose and allowed 590 to solidify at 4° C. The slides were submersed in alkaline cell lysis buffer (0.3M NaOH, 100 mM EDTA, 0.1% (w/v) N592 Lauroylsarcosine (Sigma, 61745), 1.2M NaCl in ddH2O) for 16 hours at 4° C. in the dark. […] Finally, electrophoresed and propidium iodide stained DNA was visualized using a Zeiss Axiovision Fluorescence microscope (Carl Zeiss), and 50-100 nuclei per animal were visually scored according to published protocols^34. Statistical significance was determined comparing respective damage categories between experimental groups by a two-tailed unpaired t-test. […]

Molecules are shown by their SMILES. Entries after “also recorded” stand apart in the source; their conditions may differ.

Procedure for aged female SD rats: The animals were housed under standard laboratory conditions on a 12 h light/dark cycle with constant access to food and water. […] For metformin treatment 15 months old female SD rats that were fed ad libitum received metformin (Glucophage) in their drinking water (300 mg/kg bodyweight per day). Metformin treatment was interrupted for two days before and three days after surgery and then commenced to the end of the study (21 days after lesion induction). Fluid consumption was continuously monitored to adapt dosages. For studies involving demyelination, female Sprague Dawley rats (Harlan Laboratories) 18 months of age were used. The rats were anesthetized with buprenorphine (0.03 mg/kg, s.c.) 471 and 2.5% isoflurane. Demyelination was induced by stereotaxic injection of 4 μl of 0.01% ethidium bromide (EB) into the caudal cerebellar peduncles (CCPs), as previously described 28. EB was delivered at a rate of 1 μl/min. After EB delivery the injection needle remained in position for additional 4 min. To assess remyelination the rats were transcardially perfused with 4% glutaraldehyde and 0.4 mM CaCl2) in PBS. The cerebellum was cut in to transverse 1 mm thick sections. The tissue was fixed in 2% osmium-tetroxide at 4° C. overnight, dehydrated through a series of washes in ethanol and propylene-oxide and embedded in resin. From the resin blocks 1 μm thick sections were cut and stained with 1% toluidine blue.

Turning to `CC1=C(/C=C/C(C)=C\C=C\C(C)=C\C(=O)O)C(C)(C)CCC1` [9-cis-retinoic acid], the “differentiation of young OPCs” value in assay [1] is listed as “enhanced differentiation in young”. The “differentiation of aged OPCs” value in the assay on aged OPCs [2] is “but not aged OPCs”.
`CN1[C@@H]2CC[C@H]1C[C@@H](OC(c1ccccc1)c1ccccc1)C2` [benztropine]: the “differentiation of young OPCs” value in assay [1] is “enhanced differentiation in young”. Further, the “differentiation of aged OPCs” value in the assay on aged OPCs [2] is given as “but not aged OPCs”.
Turning to `CN(C)C(=N)NC(=N)N` [metformin, N,N-dimethylbiguanide], in the assay on aged OPCs [3] (100 μM metformin during first 5 days of culture), the “expression of Cdkn2a (senescence marker)” value is given as “expressed significantly less Cdkn2a”. In addition, in the assay on aged OPCs [3] (100 μM metformin during first 5 days of culture with growth factors), the “expression of Pdgfra and Ascl1 (OPC self-renewal genes)” value is “increased their expression of Pdgfra and Ascl1”. In addition, the “degree of remyelination versus control animals” value in the assay with aged female SD rats is on record as “enhances remyelination in aged rats”; with aged female SD rats (listed as Metformin), “significantly higher compared to control animals”. For the same compound, the “degree of remyelination versus ADF animals” value in the assay with aged female SD rats (aged rats, metformin 300 mg/kg in drinking water for three months prior to lesion, compared with alternate day fasting) was “comparable to animals undergoing ADF”. In addition, the “DNA damage, comet assay” value in the assay on aged OPCs [4] (aged OPCs (≥18 months), 100 μM metformin during first 5 days of culture) is reported as “less DNA damage”. Further, in the assay on aged OPCs [4] (aged OPCs, DNA damage among the hallmarks), the “hallmarks of aging of aged OPCs” value is given as “ameliorates hallmarks of ageing”. For the same compound, in the assay with aged OPCs [2] (aged OPCs exposed to metformin, in the presence of pro-differentiation factors), the “proportion of MBP expressing oligodendrocytes with highly arborized morphology” value is “significant increase”. In addition, the “differentiation of aged OPCs (differentiation potential), agent added before differentiation” value in the assay with aged OPCs [2] (aged OPCs, agent added prior to pro-differentiation compounds / onset of differentiation, Olig2+MBP+ cells) is reported as “restores the ability of aged OPCs to differentiate; also recorded: enhanced differentiation of aged OPCs”.
